Measured values published in patent US11622942B2, “Benzene-1,3,5-tricarboxamide derived ester lipids and uses thereof” (Ohio State Innovation Foundation, priority 2017, dated 2023).

System: Hep3B cells
Assay: LLNs-mediated luciferase transfection assay (FLuc mRNA delivery)
Type: cell-based, human
Conditions: FLuc mRNA-loaded LLNs, 6 h transfection, normalized to TT3 (FIG. 1)
Procedure: The synthesized compounds were formulated with 1,2-dioleoyl-sn-glycero-3-phosphoethanolamine (DOPE), cholesterol, and mRNA. The formulated nanoparticles were evaluated with a luciferase expression assay.
Benzene-1,3,5-tricarbonyl trichloride (12) was reacted with Boc-protected diamine (13) in order to produce the intermediates (14) (Broaders, K. E. et. al. Chem. Commun. (Cambridge, U. K.) 2011, 47, 665-667). Deprotection of (14) gave compound (11), which underwent reductive amination to afford the desired products compounds #1 to #10 (See Dong, Y. et. al. Proc. Natl. Acad. Sci. U.S.A 2014, 111, 3955-3960). The structures of compounds #1 to #10 were confirmed by ^1H NMR spectroscopy (See FIGS. 12-21) and mass spectrometry (See FIGS. 2-11). […] Meanwhile, particle properties (including size, zeta potential, and entrapment efficiency) are measured using a dynamic light-scattering instrument and a ribogreen assay (Love Kevin, T. et. al. Proc. Nat. Acad. Sci. U.S.A 2010, 107, 1864-1869; Chen, D. et. al. J. Am. Chem. Soc. 2012, 134, 6948-6951).
Next, delivery efficiency and cytotoxicity of compounds #1 to #10 (LLNs-FLuc mRNA) was evaluated in Hep3B cells, a human hepatoma cell line. […]

CCCCC(CCC)OC(=O)CCCCCCCCN(CCCCCCCCC(=O)OC(CCC)CCCC)CCCNC(=O)c1cc(C(=O)NCCCN(CCCCCCCCC(=O)OC(CCC)CCCC)CCCCCCCCC(=O)OC(CCC)CCCC)cc(C(=O)NCCCN(CCCCCCCCC(=O)OC(CCC)CCCC)CCCCCCCCC(=O)OC(CCC)CCCC)c1 (stereo not shown) [Compound 10]
expression of the firefly luciferase: highest expression
